Common to all, as to type: cell-based
One test relates to Bacillus subtilis. As to the kind of experiment: Standard disc-plate method, zone of inhibition. The text has this: (§1) The utility of the various compounds as intermediates to other compounds of the present invention will be evident from the preceding discussion. The antibacterial activity of these compounds, reflecting their utility in the control of susceptible bacterial infections in man and animals, as animal feed additives for promotion of growth, or as preservatives of materials biodegraded by susceptible microorganisms, is best measured by the standard disc-plate method routinely employed in clinical laboratories for determining the sensitivity of microorganisms to antimicrobial substances. Sensitivity discs are prepared by dipping a standard 6.25 mm. paper disc into a solution of the compound to be tested (conc. 1 mg./ml.) in a volatile solvent (e.g. methylene chloride) and the disc dried, producing discs containing approximately 25 microg. of the compound. The discs are placed on the surface of agar growth media seeded with the test microorganism, previously plated into Petri dishes. The plates are incubated overnight at 35°-37° C. Activity of the test compound is reflected by a zone of inhibition of bacterial growth around the test disc. The diameter of this zone provides a quantitative measure of the activity of the antibacterial substance. The activity of various compounds of the present invention is summarized in Table I. For comparison, results obtained with 10 microg. discs of ampicillin and penicillin G are included as positive controls.

Test [1] concerns Escherichia coli. As to the kind of experiment: Standard disc-plate method, zone of inhibition. The conditions noted are these: for zone of inhibition at 25 µg/disc: Escherichia coli.
From the text: as §1

A further test has as its system Micrococcus luteus. The test is described as follows: Standard disc-plate method, zone of inhibition.
From the text: as §1

The test system of a further test is Staphylococcus aureus. The test is described as follows: Standard disc-plate method, zone of inhibition.
From the text: as §1

In the next test the test system is Vibrio percolans. The test is described as follows: Standard disc-plate method, zone of inhibition. The conditions noted are these: for zone of inhibition at 25 µg/disc: 25 microgram discs.
From the text: as §1

The subject of test [2] is Staphylococcus aureus (Antibiotic Resistant). As to the kind of experiment: Standard disc-plate method, zone of inhibition. The conditions noted are these: for zone of inhibition at 25 µg/disc: 25 microgram discs.
From the text: as §1

For the next test, the system named is Proteus morgani. The test is described as follows: Serial dilution-tube method, MIC. The conditions noted are these: brain heart infusion broth.
Another test deals with Enterobacter cloacae. As to the kind of experiment: Serial dilution-tube method, MIC. The conditions noted are these: brain heart infusion broth.
Another test concerns Serratia marcescens. As to the kind of experiment: Serial dilution-tube method, MIC. The conditions noted are these: brain heart infusion broth.
The test system of the next test is Klebsiella pneumoniae. As to the kind of experiment: Serial dilution-tube method, MIC. The conditions noted are these: brain heart infusion broth.
The next test concerns Pseudomonas aeruginosa. As to the kind of experiment: Serial dilution-tube method, MIC. The conditions noted are these: brain heart infusion broth.
Test [3] has as its system Escherichia coli (Antibiotic Resistant). The test is described as follows: Serial dilution-tube method, MIC. The conditions noted are these: brain heart infusion broth.
The subject of test [4] is Escherichia coli. The test is described as follows: Serial dilution-tube method, MIC. The conditions noted are these: brain heart infusion broth.
In test [5] the test system is Staphylococcus aureus (Antibiotic Resistant). As to the kind of experiment: Serial dilution-tube method, MIC. The conditions noted are these: brain heart infusion broth.
The mark [6] stands for this setting: Bacillus subtilis, 25 microgram discs.
Where [7] appears, read: Micrococcus luteus, 25 microgram discs.
The mark [8] stands for this setting: Staphylococcus aureus, 25 microgram discs.
The mark [9] stands for this setting: Staphylococcus aureus, antibiotic resistant.
The mark [10] stands for this setting: positive control, 10 microgram discs.

Regarding `CC(=O)OC(C)C1C(=O)N2C(C(=O)O)=C(C)C(OC(C)=O)C12` (stereo not drawn) [AET H H CH3 H OAc I, Sodium 6-alpha-(1-Acetoxyethyl)-1-acetoxy-2-methylcarbapen-2-em-3-carboxylate], the zone of inhibition (commonly the size of the clear area around the sample on an inoculated plate) at 25 µg/disc with Bacillus subtilis (setting [6]) was 25 mm; in the test on Escherichia coli [1] (25 microgram discs), 0 mm; in the test on Micrococcus luteus (setting [7]), 26 mm; in the test with Staphylococcus aureus (setting [8]), 21 mm; with Vibrio percolans (Comamonas terrigena) it was 10 mm.
The like results for `CC(=O)OC(C)C1C(=O)N2C(C(=O)O)=C(C)C(O)C12` (stereo not drawn) [AET H H CH3 H OH I, Sodium 6-alpha-(1-Acetoxyethyl)-1-hydroxy-2-methylcarbapen-2-em-3-carboxylate] were, in that order, 15 mm, 0 mm, 20 mm, 20 mm and 16 mm.
As to `CCN1CCN(C(=O)N[C@@H](C(=O)NC2C(=O)N3C(C(=O)OCOC(=O)C(C)(C)C)=C(C)C(=O)C23)c2ccccc2)C(=O)C1=O` (some centres unmarked) [EPA H POM CH3 O II, Pivaloyloxymethyl 2-Methyl-1-oxo-6-[2-phenyl-2-(4-ethyl-2,3-dioxopiperazine-1-carboxamido)acetamido]carbapen-2-em-3-carboxylate], the zone of inhibition at 25 µg/disc was determined as 0 mm with Bacillus subtilis (setting [6]); 0 mm with Escherichia coli [1] (25 microgram discs); 0 mm in the test on Micrococcus luteus (setting [7]); 0 mm in test [2] (setting [9]); 0 mm with Staphylococcus aureus (setting [8]); 20 mm with Vibrio percolans (Comamonas terrigena).
For the compound `CC(=O)OC1C(C)=C(C(=O)O)N2C(=O)CC12` (centres unmarked) [H H H CH3 H OAc II, Sodium 1-Acetoxy-2-methylcarbapen-2-em-3-carboxylate], the zone of inhibition at 25 µg/disc was 13 mm in the test on Bacillus subtilis (setting [6]), 0 mm in the test on Escherichia coli [1] (25 microgram discs), 8 mm in test [2] (setting [9]) and 18 mm in the test on Vibrio percolans (Comamonas terrigena).
`CC(=O)OCC1=C(C(=O)OCOC(=O)C(C)(C)C)N2C(=O)CC2C1=O` (centres unmarked) [H H POM CH2OAc O II, Pivaloyloxymethyl 2-Acetoxymethyl-1-oxocarbapen-2-em-3-carboxylate]: the zone of inhibition at 25 µg/disc in test [2] (setting [9]) was found to be 12 mm; in the test with Staphylococcus aureus (setting [8]) it was 0 mm.
With `CC(=O)OC1C(C)=C(C(=O)OCOC(=O)C(C)(C)C)N2C(=O)CC12` (centres unmarked) [H H POM CH3 H OAc II, Pivaloyloxymethyl 1-Acetoxy-2-methylcarbapen-2-em-3-carboxylate], the zone of inhibition at 25 µg/disc in the test with Bacillus subtilis (setting [6]) was found to be 14 mm; in the test with Micrococcus luteus (setting [7]), 0 mm; in test [2] (setting [9]) it was 0 mm; in the test on Staphylococcus aureus (setting [8]) it was 13 mm.
In the case of `CC1=C(C(=O)OCOC(=O)C(C)(C)C)N2C(=O)CC2C1O` (centres unmarked) [H H POM CH3 H OH II, Pivaloyloxymethyl 1-Hydroxy-2-methylcarbapen-2-em-3-carboxylate], the zone of inhibition at 25 µg/disc with Bacillus subtilis (setting [6]) is 15 mm; with Escherichia coli [1] (25 microgram discs), 10 mm; in the test on Micrococcus luteus (setting [7]), 10 mm; in test [2] (setting [9]) it was 13 mm; with Staphylococcus aureus (setting [8]), 15 mm.
Turning to `CC(=O)OC1C(C)=C(C(=O)[O-])N2C(=O)C(C(C)O)C12.[Na+]` (stereo not drawn) [HET H H CH3 H OAc I, Sodium 6-alpha-(1-Hydroxyethyl)-1-acetoxy-2-methylcarbapen-2-em-3-carboxylate], the “Zone of Inhibition” value came out at 16 mm in the test with Bacillus subtilis (25 microgram discs), 0 mm with Escherichia coli [1] (25 microgram discs), 13 mm in the test on Micrococcus luteus (25 microgram discs) and 0 mm with Staphylococcus aureus (25 microgram discs). Further, the “Minimum Inhibitory Concentration” value (with Proteus morgani; in the test with Enterobacter cloacae; with Serratia marcescens; in the test on Klebsiella pneumoniae; in the test on Pseudomonas aeruginosa; in test [3]) was above 200 µg/mL in each case. Moreover, the results for the “Minimum Inhibitory Concentration” value (in the test with Escherichia coli [4]; in test [5]) were above 200 µg/mL and 100 µg/mL, respectively.
`COC1=C(C(=O)O)N2C(=O)C(C(C)O)C2C1O` (stereo not drawn) [HET H H OCH3 H OH I, Sodium 6-alpha-(1-Hydroxyethyl)-1-hydroxy-2-methoxycarbapen-2-em-3-carboxylate]: the zone of inhibition at 25 µg/disc turned out to be 22 mm in the test on Bacillus subtilis (setting [6]), 11 mm in the test with Escherichia coli [1] (25 microgram discs), 42 mm with Micrococcus luteus (setting [7]) and 27 mm in the test on Staphylococcus aureus (setting [8]).
Take `CC1=C(C(=O)OCOC(=O)C(C)(C)C)N2C(=O)C(C(C)O)C2C1O` (stereo not drawn) [HET H POM CH3 H OH I, pivaloyloxymethyl 6-alpha-(1-hydroxyethyl)-1-hydroxy-2-methylcarbapen-2-em-3-carboxylate]: the “Zone of Inhibition” value was found to be 24 mm in the test with Bacillus subtilis (25 microgram discs), 14 mm in the test on Escherichia coli [1] (25 microgram discs), 31 mm in the test with Micrococcus luteus (25 microgram discs) and 27 mm with Staphylococcus aureus (25 microgram discs).
`Cc1onc(-c2ccccc2)c1C(=O)NC1C(=O)N2C(C(=O)OCOC(=O)C(C)(C)C)C(C)C(=O)C12` (centres unmarked) [MPI H POM CH3 O I, Pivaloyloxymethyl 2-Methyl-6-(5-methyl-3-phenylisoxazole-4-carboxamido)-1-oxocarbapenam-3-carboxylate]: the zone of inhibition at 25 µg/disc with Bacillus subtilis (setting [6]) is 15 mm; in the test with Escherichia coli [1] (25 microgram discs), 0 mm; in [2] (setting [9]), 11 mm; with Staphylococcus aureus (setting [8]), 0 mm; in the test with Vibrio percolans (Comamonas terrigena), 0 mm.
Consider `CC1=C(C(=O)OCOC(=O)C(C)(C)C)N2C(=O)C(NC(=O)c3c(-c4ccccc4)noc3C)C2C1=O` (centres unmarked) [MPI H POM CH3 O II, Pivaloyloxymethyl 2-Methyl-6-(5-methyl-3-phenylisoxazole-4-carboxamido)-1-oxocarbapen-2-em-3-carboxylate], for which the zone of inhibition at 25 µg/disc came to 21 mm in the test on Bacillus subtilis (setting [6]); 0 mm in the test on Escherichia coli [1] (25 microgram discs); 9 mm in test [2] (setting [9]); 0 mm with Staphylococcus aureus (setting [8]); 0 mm with Vibrio percolans (Comamonas terrigena).
Take `CC(=O)OC1C(C)C(C(=O)O)N2C(=O)C(NC(=O)COc3ccccc3)C12` (centres unmarked) [PMA H H CH3 H OAc I, 1-Acetoxy-2-methyl-6-(2-phenoxyacetamido)carbapenam-3-carboxylic Acid]: the zone of inhibition at 25 µg/disc (with Bacillus subtilis (setting [6]); with Escherichia coli [1] (25 microgram discs); with Micrococcus luteus (setting [7]); in [2] (setting [9]); with Staphylococcus aureus (setting [8])) was 0 mm each time.
Regarding `COC1(NC(=O)COc2ccccc2)C(=O)N2C(C(=O)OCOC(=O)C(C)(C)C)=C(C)C(=O)C21` (centres unmarked) [PMA OMe POM CH3 O II, Pivaloyloxymethyl 6-Methoxy-2-methyl-1-oxo-6-(2-phenoxyacetamido)carbapen-2-em-3-carboxylate], the zone of inhibition at 25 µg/disc with Bacillus subtilis (setting [6]) was 33 mm; in the test with Escherichia coli [1] (25 microgram discs), 0 mm; in test [2] (setting [9]), 0 mm; with Staphylococcus aureus (setting [8]), 8 mm; in the test with Vibrio percolans (Comamonas terrigena), 0 mm.
Take `CC1(C)S[C@@H]2[C@H](NC(=O)Cc3ccccc3)C(=O)N2[C@H]1C(=O)O` [Penicillin G, reference compound]: the “Zone of Inhibition” value in the test on Bacillus subtilis (setting [10]) is recorded as 33 mm; in the test with Escherichia coli [1] (setting [10]) it was 0 mm; in the test with Micrococcus luteus (setting [10]) it was 45 mm; in test [2] (positive control, 10 microgram discs, antibiotic resistant) it was 0 mm; with Staphylococcus aureus (setting [10]) it was 32 mm; in the test on Vibrio percolans (setting [10]), 32 mm.
Turning to `CC1(C)S[C@@H]2[C@H](NC(=O)Cc3ccccc3)C(=O)N2[C@H]1C(=O)O` [Penicillin, reference compound], the zone of inhibition at 10 µg/disc in the test with Bacillus subtilis (Bacillus subtilis, positive control, 10 microgram discs) was found to be 32 mm; in the test with Micrococcus luteus (Micrococcus luteus), 45 mm; in test [2] (Staphylococcus aureus), 0 mm; in the test on Staphylococcus aureus (Staphylococcus aureus, positive control, 10 microgram discs) it was 31 mm; in the test on Vibrio percolans (Comamonas terrigena, positive control, 10 microgram discs), 33 mm. Further, in the test with Escherichia coli [1] (setting [10]), the “Zone of Inhibition” value is given as 16 mm.
